# Data as given in patent US6737383B1, “Herbicidal oxadiazolidines” (priority 1999, dated 2004).
# Assays:
# corn = assay: Test B pre/postemergence corn; assay type: in vivo, Zea mays
# How it was run: (§1)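 Herbicidal effect was estimated by eye on a ten-point control scale after plants spent twelve to sixteen days in a greenhouse following soil or foliar treatment. Foliar sprays targeted plants at one to four leaves; all doses were formulated in a non-phytotoxic solvent with surfactant.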
# surinam grass = assay: Test B pre/postemergence surinam grass; assay type: in vivo, Brachiaria decumbens
# How it was run: as §1
# velvetleaf = assay: Test B pre/postemergence velvetleaf; assay type: in vivo, Abutilon theophrasti
# How it was run: as §1
# giant foxtail = assay: Test B pre/postemergence giant foxtail; assay type: in vivo, Setaria faberii
# How it was run: as §1
# bamyardgrass = assay: Test B flood test barnyardgrass; assay type: in vivo, Echinochloa crus-galli
# How it was run: (§2)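 Read-out is a visual response score from 0 (no effect) to 10 (complete control), assigned by comparison with untreated controls. Treatment was applied at the 2-leaf stage, and plants stayed in the greenhouse for twelve to sixteen days before scoring.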
# blackgrass = assay: Test B pre/postemergence blackgrass; assay type: in vivo, Alopecurus myosuroides
# How it was run: as §1
# bedstraw = assay: Test B pre/postemergence bedstraw; assay type: in vivo, Galium aparine; details: Preemergence
# How it was run: as §1
# smallflower flatsedge = assay: Test B flood test smallflower flatsedge; assay type: in vivo, Cyperus difformis
# How it was run: as §2
# crabgrass = assay: Test B pre/postemergence crabgrass; assay type: in vivo, Digitaria sanguinalis
# How it was run: as §1
# pigweed = assay: Test B pre/postemergence pigweed; assay type: in vivo, Amaranthus retroflexus
# How it was run: as §1
# wheat = assay: Test B pre/postemergence wheat; assay type: in vivo, Triticum aestivum
# How it was run: as §1
# soybean = assay: Test B pre/postemergence soybean; assay type: in vivo, Glycine max
# How it was run: as §1
# cocklebur = assay: Test B pre/postemergence cocklebur; assay type: in vivo, Xanthium strumarium
# How it was run: as §1
# purple nutsedge = assay: Test B pre/postemergence purple nutsedge; assay type: in vivo, Cyperus rotundus
# How it was run: as §1
# wild oat = assay: Test B pre/postemergence wild oat; assay type: in vivo, Avena fatua
# How it was run: as §1
# morningglory = assay: Test B pre/postemergence morningglory; assay type: in vivo, Ipomoea hederacea
# How it was run: as §1
# sugar beet = assay: Test B pre/postemergence sugar beet; assay type: in vivo, Beta vulgaris
# How it was run: as §1
# duck salad = assay: Test B flood test duck salad; assay type: in vivo, Heteranthera limosa
# How it was run: as §2
# rape = assay: Test B pre/postemergence rape; assay type: in vivo, Brassica napus
# How it was run: as §1
# rice = assay: Test B flood test rice; assay type: in vivo, Oryza sativa
# How it was run: as §2
# [1] = Postemergence, Rate 125 g/ha, scale 0 to 10, 0 is no effect, 10 is complete control
# [2] = Postemergence, Rate 250 g/ha, scale 0 to 10, 0 is no effect, 10 is complete control
# [3] = Postemergence, Rate 500 g/ha, scale of 0 to 10 where 0 is no effect and 10 is complete control
# [4] = Preemergence, Rate 62 g/ha, scale 0 to 10 (0 no effect, 10 complete control)
# [5] = Preemergence, Rate 125 g/ha, scale of 0 to 10 where 0 is no effect and 10 is complete control
# [6] = Preemergence, Rate 250 g/ha, scale 0 to 10, 0 is no effect, 10 is complete control
# [7] = Preemergence, Rate 500 g/ha, scale 0 to 10, 0 is no effect, 10 is complete control
# [8] = Rate 62 g/ha, Postemergence, scale of 0 to 10 where 0 is no effect and 10 is complete control
# [9] = Preemergence, Rate 250 g/ha, scale of 0 to 10 where 0 is no effect and 10 is complete control
# [10] = Rate 62 g/ha, flood test species, Pre-emergence, visual evaluation after twelve to sixteen days
# [11] = Rate 125 g/ha, under heading Pre-emergence, flood test species, visual evaluation after twelve to sixteen days
# [12] = Rate 250 g/ha, Pre-emergence, flood-test species, scale 0 to 10, 0 is no effect, 10 is complete control
# [13] = Rate 500 g/ha, Pre-emergence, flood test species, scale 0 to 10 (0 no effect, 10 complete control)
smiles,measurement,setting,value
Cc1nc(Cl)sc1C(C)n1c(=O)on(C(=O)N(c2ccc(Cl)cc2)C(C)C)c1=O (centres unmarked) [Compound 406],"Plant response rating, Corn",corn; [1],0
same,"Plant response rating, Corn",corn; [2],0
same,Corn plant response rating,corn; [3],0
same,"Plant response rating, Corn",corn; [4],0
same,"Plant response rating, Corn",corn; [5],0
same,Corn plant response rating,corn; [6],0
same,Corn plant response rating,corn; [7],0
same,Corn plant response rating,corn; [8],0
same,"Plant response rating, B. signalgrass",surinam grass; [1],0
same,"Plant response rating, B. signalgrass",surinam grass; [2],0
same,B. signalgrass plant response rating,surinam grass; [3],0
same,"Plant response rating, B. signalgrass",surinam grass; [4],0
same,"Plant response rating, B. signalgrass",surinam grass; [5],0
same,B. signalgrass plant response rating,surinam grass; [9],0
same,B. signalgrass plant response rating,"surinam grass; Preemergence, Rate 500 g/ha, scale of 0 to 10 where 0 is no effect and 10 is complete control",0
same,B. signalgrass plant response rating,surinam grass; [8],0
same,"Plant response rating, Velvetleaf",velvetleaf; [2],0
same,Velvetleaf plant response rating,velvetleaf; [3],0
same,"Plant response rating, Velvetleaf",velvetleaf; [4],0
same,"Plant response rating, Velvetleaf",velvetleaf; [5],0
same,Velvetleaf plant response rating,velvetleaf; [6],0
same,Velvetleaf plant response rating,velvetleaf; [7],0
same,"Plant response rating, Giant foxtail",giant foxtail; [1],0
same,"Plant response rating, Giant foxtail",giant foxtail; [2],0
same,Giant foxtail plant response rating,giant foxtail; [3],0
same,"Plant response rating, Giant foxtail",giant foxtail; [4],0
same,"Plant response rating, Giant foxtail",giant foxtail; [5],0
same,Giant foxtail plant response rating,giant foxtail; [6],2
same,Giant foxtail plant response rating,giant foxtail; [7],9
same,Giant foxtail plant response rating,giant foxtail; [8],0
same,"Plant response rating, Barnyardgrass (0 to 10 scale, 0 is no effect, 10 is complete control)",bamyardgrass; [10],0
same,"Barnyardgrass plant response rating (0 to 10 scale, 0 is no effect, 10 is complete control)",bamyardgrass; [11],0
same,Barnyardgrass plant response rating,bamyardgrass; [12],0
same,Barnyardgrass plant response rating,bamyardgrass; [13],0
same,"Plant response rating, Blackgrass",blackgrass; [1],0
same,"Plant response rating, Blackgrass",blackgrass; [2],0
same,Blackgrass plant response rating,blackgrass; [3],0
same,"Plant response rating, Blackgrass",blackgrass; [4],0
same,"Plant response rating, Blackgrass",blackgrass; [5],0
same,Blackgrass plant response rating,blackgrass; [9],0
same,Blackgrass plant response rating,blackgrass; [7],0
same,Blackgrass plant response rating,blackgrass; [8],0
same,"Plant response rating, Bedstraw","bedstraw; Rate 62 g/ha, scale 0 to 10 (0 no effect, 10 complete control)",0
same,"Plant response rating, Bedstraw","bedstraw; Rate 125 g/ha, scale of 0 to 10 where 0 is no effect and 10 is complete control",0
same,Bedstraw plant response rating,"bedstraw; Rate 250 g/ha, scale of 0 to 10 where 0 is no effect and 10 is complete control",0
same,"Plant response rating, S. Flatsedge (0 to 10 scale, 0 is no effect, 10 is complete control)",smallflower flatsedge; [10],0
same,"S. Flatsedge plant response rating (0 to 10 scale, 0 is no effect, 10 is complete control)",smallflower flatsedge; [11],0
same,S. Flatsedge plant response rating,smallflower flatsedge; [12],0
same,S. Flatsedge plant response rating,smallflower flatsedge; [13],0
same,"Plant response rating, Crabgrass",crabgrass; [1],0
same,"Plant response rating, Crabgrass",crabgrass; [2],0
same,Crabgrass plant response rating,crabgrass; [3],0
same,"Plant response rating, Crabgrass",crabgrass; [4],0
same,"Plant response rating, Crabgrass",crabgrass; [5],0
same,Crabgrass plant response rating,crabgrass; [6],2
same,Crabgrass plant response rating,crabgrass; [7],6
same,Crabgrass plant response rating,crabgrass; [8],0
same,"Plant response rating, Redroot pigweed",pigweed; [2],0
same,Redroot pigweed plant response rating,pigweed; [3],0
same,"Plant response rating, Redroot pigweed",pigweed; [4],0
same,"Plant response rating, Redroot pigweed",pigweed; [5],0
same,Redroot pigweed plant response rating,pigweed; [6],0
same,Redroot pigweed plant response rating,pigweed; [7],0
same,Wheat plant response rating,wheat; [3],0
same,"Plant response rating, Wheat",wheat; [4],0
same,"Plant response rating, Wheat",wheat; [5],0
same,Wheat plant response rating,wheat; [6],0
same,Wheat plant response rating,wheat; [7],0
same,"Plant response rating, Soybean",soybean; [2],2
same,Soybean plant response rating,soybean; [3],2
same,"Plant response rating, Soybean",soybean; [4],0
same,"Plant response rating, Soybean",soybean; [5],0
same,Soybean plant response rating,soybean; [6],0
same,Soybean plant response rating,soybean; [7],0
same,"Plant response rating, Cocklebur",cocklebur; [1],0
same,"Plant response rating, Cocklebur",cocklebur; [2],0
same,Cocklebur plant response rating,cocklebur; [3],0
same,"Plant response rating, Cocklebur",cocklebur; [4],0
same,"Plant response rating, Cocklebur",cocklebur; [5],0
same,Cocklebur plant response rating,cocklebur; [6],0
same,Cocklebur plant response rating,cocklebur; [7],0
same,Cocklebur plant response rating,cocklebur; [8],0
same,"Plant response rating, Nutsedge",purple nutsedge; [2],0
same,Nutsedge plant response rating,purple nutsedge; [3],0
same,"Plant response rating, Nutsedge",purple nutsedge; [4],0
same,"Plant response rating, Nutsedge",purple nutsedge; [5],0
same,Nutsedge plant response rating,purple nutsedge; [6],0
same,Nutsedge plant response rating,purple nutsedge; [7],0
same,Wild oats plant response rating,wild oat; [3],0
same,"Plant response rating, Wild oats",wild oat; [4],0
same,"Plant response rating, Wild oats",wild oat; [5],0
same,Wild oats plant response rating,wild oat; [6],0
same,Wild oats plant response rating,wild oat; [7],0
same,"Plant response rating, Morningglory",morningglory; [2],2
same,Morningglory plant response rating,morningglory; [3],2
same,"Plant response rating, Morningglory",morningglory; [4],0
same,"Plant response rating, Morningglory",morningglory; [5],0
same,Morningglory plant response rating,morningglory; [6],0
same,Morningglory plant response rating,morningglory; [7],0
same,"Plant response rating, Sugarbeets",sugar beet; [2],0
same,Sugarbeets plant response rating,sugar beet; [3],0
same,"Plant response rating, Sugarbeets",sugar beet; [4],0
same,"Plant response rating, Sugarbeets",sugar beet; [5],0
same,Sugarbeets plant response rating,sugar beet; [6],0
same,Sugarbeets plant response rating,sugar beet; [7],0
same,"Plant response rating, Ducksalad (0 to 10 scale, 0 is no effect, 10 is complete control)",duck salad; [10],0
same,"Ducksalad plant response rating (0 to 10 scale, 0 is no effect, 10 is complete control)",duck salad; [11],0
same,Ducksalad plant response rating,duck salad; [12],0
same,Ducksalad plant response rating,duck salad; [13],0
same,"Plant response rating, Rape",rape; [2],0
same,Rape plant response rating,rape; [3],0
same,"Plant response rating, Rape",rape; [4],0
same,"Plant response rating, Rape",rape; [5],0
same,Rape plant response rating,rape; [6],0
same,Rape plant response rating,rape; [7],0
same,"Plant response rating, Rice (0 to 10 scale, 0 is no effect, 10 is complete control)",rice; [10],0
same,"Rice plant response rating (0 to 10 scale, 0 is no effect, 10 is complete control)",rice; [11],0
same,Rice plant response rating,rice; [12],0
same,Rice plant response rating,rice; [13],0
